Test results as given in patent US11464749B2, “Bismuth-thiol compositions and methods of use” (Microbion Corporation, priority 2018, dated 2022).
In brackets after ≈: the same amount, converted by molar mass.

Tests used:
Test in all cases: Broth microdilution MIC (Example 12)
[1] = tested on: Escherichia coli
[2] = tested on: Klebsiella pneumoniae
[3] = tested on: Pseudomonas aeruginosa
[4] = tested on: Acinetobacter baumannii
[5] = tested on: vancomycin-intermediate Staphylococcus aureus (VISA)
[6] = E. coli ATCC 35218, QC organism (Table 102)
[7] = K. pneumoniae ATCC BAA-1705, ESBL/KPC
[8] = K. pneumoniae ATCC BAA-1705, QC organism (Table 102)
[9] = K. pneumoniae CDC 113, ESBL/KPC
[10] = K. pneumoniae CDC 115, ESBL/KPC
[11] = K. pneumoniae CDC 120, ESBL/KPC
[12] = K. pneumoniae CDC 126, ESBL/KPC
[13] = K. pneumoniae CDC 129, ESBL/KPC
[14] = K. pneumoniae CDC 135, ESBL/VIM
[15] = K. pneumoniae CDC 138, ESBL/NDM
[16] = K. pneumoniae CDC 158, ESBL/NDM/OXA
[17] = P. aeruginosa CDC 516, KPC/AmpC
[18] = P. aeruginosa CDC 518, KPC/AmpC

CC(C)(O/N=C(\C(=O)N[C@@H]1C(=O)N2C(C(=O)[O-])=C(C[n+]3ccccc3)CS[C@H]12)c1csc(N)n1)C(=O)O [CAZ]
MIC ([1]; E. coli ATCC 35218, ESBL): 0.12 µg/mL (≈ 0.22 µM) | MIC [1, 6]: 0.12 µg/mL (≈ 0.22 µM) | MIC ([1]; E. coli ATCC BAA-2471, NDM): >64 µg/mL | MIC ([1]; E. coli CDC 114, ESBL/KPC): >64 µg/mL | MIC ([1]; E. coli CDC 118, ESBL/NDM): >64 µg/mL | MIC ([1]; E. coli CDC 435, NDM): >64 µg/mL | MIC ([1]; E. coli CDC 451, KPC): 64 µg/mL (≈ 117 µM) | MIC ([1]; E. coli CDC 503, ESBL/NDM): >64 µg/mL | MIC ([1]; E. coli MMX 5745, KPC): 32 µg/mL (≈ 58.5 µM) | MIC ([1]; E. coli MMX 5755, ESBL): >64 µg/mL | MIC ([1]; E. coli MMX 5756, ESBL): >64 µg/mL | MIC ([1]; E. coli MMX 5758, ESBL): 16 µg/mL (≈ 29.3 µM) | MIC [2, 7]: >64 µg/mL | MIC [2, 8]: >64 µg/mL | MIC ([2]; K. pneumoniae CDC 112, KPC): >64 µg/mL | MIC [2, 9]: >64 µg/mL | MIC [2, 10]: >64 µg/mL | MIC [2, 11]: >64 µg/mL | MIC [2, 12]: 4 µg/mL (≈ 7.32 µM) | MIC [2, 13]: >64 µg/mL | MIC [2, 14]: >64 µg/mL | MIC [2, 15]: >64 µg/mL | MIC [2, 16]: >64 µg/mL | MIC ([2]; K. pneumoniae MMX 9029, ESBL): 4 µg/mL (≈ 7.32 µM) | MIC ([3]; P. aeruginosa CDC 230, VIM/OXA): 64 µg/mL (≈ 117 µM) | MIC ([3]; P. aeruginosa CDC 231, KPC/OXA): >64 µg/mL | MIC ([3]; P. aeruginosa CDC 241, IMP/OXA): >64 µg/mL | MIC ([3]; P. aeruginosa CDC 246, NDM/OXA): >64 µg/mL | MIC ([3]; P. aeruginosa CDC 250, NDM/OXA): >64 µg/mL | MIC ([3]; P. aeruginosa CDC 356, KPC): 64 µg/mL (≈ 117 µM) | MIC ([3]; P. aeruginosa CDC 439, IMP): >64 µg/mL | MIC ([3]; P. aeruginosa CDC 444, VIM): 32 µg/mL (≈ 58.5 µM) | MIC ([3]; P. aeruginosa CDC 457, VIM): >64 µg/mL | MIC [3, 17]: 64 µg/mL (≈ 117 µM) | MIC [3, 18]: 32 µg/mL (≈ 58.5 µM) | MIC ([4]; A. baumannii CDC 273, ESBL/OXA): 64 µg/mL (≈ 117 µM) | MIC ([4]; A. baumannii CDC 274, ESBL/OXA): >64 µg/mL | MIC ([4]; A. baumannii CDC 275, ESBL/OXA): >64 µg/mL | MIC ([4]; A. baumannii CDC 277, ESBL/OXA): >64 µg/mL | MIC ([4]; A. baumannii CDC 284, ESBL/OXA): 64 µg/mL (≈ 117 µM) | MIC ([4]; A. baumannii CDC 307, OXA): 64 µg/mL (≈ 117 µM) | MIC ([4]; A. baumannii CDC 308, ESBL/OXA): 64 µg/mL (≈ 117 µM) | MIC ([4]; A. baumannii CDC 311, OXA): >64 µg/mL | MIC ([4]; A. baumannii CDC 312, OXA): >64 µg/mL | MIC ([4]; A. baumannii CDC 313, ESBL/OXA): >64 µg/mL | MIC ([4]; A. baumannii NCTC 13304, OXA): >64 µg/mL

C[C@H]1COc2c(N3CCN(C)CC3)c(F)cc3c(=O)c(C(=O)O)cn1c23 [LVX]
MIC ([1]; E. coli ATCC 35218, ESBL): ≤0.008 µg/mL | MIC [1, 6]: ≤0.008 µg/mL | MIC ([1]; E. coli ATCC BAA-2471, NDM): >8 µg/mL | MIC ([1]; E. coli CDC 114, ESBL/KPC): 4 µg/mL (≈ 11.1 µM) | MIC ([1]; E. coli CDC 118, ESBL/NDM): 8 µg/mL (≈ 22.1 µM) | MIC ([1]; E. coli CDC 435, NDM): >8 µg/mL | MIC ([1]; E. coli CDC 451, KPC): >8 µg/mL | MIC ([1]; E. coli CDC 503, ESBL/NDM): >8 µg/mL | MIC ([1]; E. coli MMX 5745, KPC): 8 µg/mL (≈ 22.1 µM) | MIC ([1]; E. coli MMX 5755, ESBL): 8 µg/mL (≈ 22.1 µM) | MIC ([1]; E. coli MMX 5756, ESBL): 4 µg/mL (≈ 11.1 µM) | MIC ([1]; E. coli MMX 5758, ESBL): 8 µg/mL (≈ 22.1 µM) | MIC [2, 7]: >8 µg/mL | MIC [2, 8]: >8 µg/mL | MIC ([2]; K. pneumoniae CDC 112, KPC): 4 µg/mL (≈ 11.1 µM) | MIC [2, 9]: 4 µg/mL (≈ 11.1 µM) | MIC [2, 10]: >8 µg/mL | MIC [2, 11]: >8 µg/mL | MIC [2, 12]: 0.015 µg/mL (≈ 0.0415 µM) | MIC [2, 13]: >8 µg/mL | MIC [2, 14]: >8 µg/mL | MIC [2, 15]: >8 µg/mL | MIC [2, 16]: 4 µg/mL (≈ 11.1 µM) | MIC ([2]; K. pneumoniae MMX 9029, ESBL): 0.12 µg/mL (≈ 0.332 µM) | MIC ([3]; P. aeruginosa CDC 230, VIM/OXA): 8 µg/mL (≈ 22.1 µM) | MIC ([3]; P. aeruginosa CDC 231, KPC/OXA): >8 µg/mL | MIC ([3]; P. aeruginosa CDC 241, IMP/OXA): 8 µg/mL (≈ 22.1 µM) | MIC ([3]; P. aeruginosa CDC 246, NDM/OXA): >8 µg/mL | MIC ([3]; P. aeruginosa CDC 250, NDM/OXA): >8 µg/mL | MIC ([3]; P. aeruginosa CDC 356, KPC): 0.12 µg/mL (≈ 0.332 µM) | MIC ([3]; P. aeruginosa CDC 439, IMP): 8 µg/mL (≈ 22.1 µM) | MIC ([3]; P. aeruginosa CDC 444, VIM): 8 µg/mL (≈ 22.1 µM) | MIC ([3]; P. aeruginosa CDC 457, VIM): >8 µg/mL | MIC [3, 17]: 0.25 µg/mL (≈ 0.692 µM) | MIC [3, 18]: >8 µg/mL | MIC ([4]; A. baumannii CDC 273, ESBL/OXA): >8 µg/mL | MIC ([4]; A. baumannii CDC 274, ESBL/OXA): 8 µg/mL (≈ 22.1 µM) | MIC ([4]; A. baumannii CDC 275, ESBL/OXA): 4 µg/mL (≈ 11.1 µM) | MIC ([4]; A. baumannii CDC 277, ESBL/OXA): 8 µg/mL (≈ 22.1 µM) | MIC ([4]; A. baumannii CDC 284, ESBL/OXA): 8 µg/mL (≈ 22.1 µM) | MIC ([4]; A. baumannii CDC 307, OXA): 8 µg/mL (≈ 22.1 µM) | MIC ([4]; A. baumannii CDC 308, ESBL/OXA): 4 µg/mL (≈ 11.1 µM) | MIC ([4]; A. baumannii CDC 311, OXA): 2 µg/mL (≈ 5.53 µM) | MIC ([4]; A. baumannii CDC 312, OXA): 2 µg/mL (≈ 5.53 µM) | MIC ([4]; A. baumannii CDC 313, ESBL/OXA): 2 µg/mL (≈ 5.53 µM) | MIC ([4]; A. baumannii NCTC 13304, OXA): 1 µg/mL (≈ 2.77 µM) | MIC ([5]; S. aureus NRS 1 (hVISA)): 4 µg/mL (≈ 11.1 µM) | MIC ([5]; S. aureus NRS 2): 4 µg/mL (≈ 11.1 µM) | MIC ([5]; S. aureus NRS 3): >8 µg/mL | MIC ([5]; S. aureus NRS 4): 4 µg/mL (≈ 11.1 µM) | MIC ([5]; S. aureus NRS 13): 0.12 µg/mL (≈ 0.332 µM) | MIC ([5]; S. aureus NRS 18): 4 µg/mL (≈ 11.1 µM) | MIC ([5]; S. aureus NRS 22): 8 µg/mL (≈ 22.1 µM) | MIC ([5]; S. aureus NRS 24 (hVISA)): >8 µg/mL | MIC ([5]; S. aureus NRS 27): 8 µg/mL (≈ 22.1 µM)
